From BigSolDB 2.1

O=C(O)c1cc([N+](=O)[O-])ccc1O
solubility (mole fraction)
Conditions	278.15 K	283.15 K	288.15 K	293.15 K	298.15 K	303.15 K	308.15 K	313.15 K	318.15 K	323.15 K
in ethylene glycol	–	–	–	–	–	–	0.0262	0.0308	0.035	0.0393
in isobutanol	0.0125	0.0149	0.0179	0.0211	0.0252	0.0296	0.0343	0.0383	0.043	0.0495
in isopropanol	0.0255	0.0286	0.0322	0.0367	0.0406	0.046	0.052	0.0575	0.0641	0.0728
in methanol	0.0316	0.0345	0.038	0.0427	0.0479	0.0538	0.0596	0.0661	0.0728	0.0807
in n-butanol	0.0173	0.0203	0.0237	0.0275	0.032	0.0368	0.0421	0.0474	0.0533	0.06
in n-propanol	0.0232	0.0266	0.0302	0.0342	0.0387	0.0433	0.0488	0.0537	0.0597	0.0656
in water	3.03e-05	3.95e-05	5.22e-05	6.76e-05	8.62e-05	0.000107	0.000133	0.000165	0.000202	0.000253
